From patent publication US8394825B2, “Compound” (Sterix Limited, priority 2007, dated 2013) come the findings set out here.

Molecules are shown by their SMILES. Like-named read-outs stand apart in the source and are kept apart here.

One data set relates to DU145 cells. The data set is described as follows: Antiproliferative assay in DU145 cells, WST-1 cell proliferation assay, 96 hours (GI50). The data set is classed as cell-based. To be noted: triplicate. As to the method:
Antiproliferative assays. DU145 cells were seeded into 96 well microtiter plates (5000 cells/well) and treated with […] of compounds or with vehicle control. At 96 hours post-treatment, live cell counts were determined by WST-1 cell proliferation assay (Roche, Penzberg, Germany), as per manufacturer's instructions. Viability results were expressed as a percentage of mean control values resulting in the calculation of the 50% growth inhibition (GI50). All experiments were performed in triplicate.
(Tetrazolium dyes change colour on reduction, which living cells bring about.)

Setting [1] is: Homo sapiens, DU-145, 96 hours post-treatment.
Setting [2] is: 96 hours post-treatment, read-out: DU-145 GI50.

In turn, `COc1ccc(OC)c(CN2CCc3cc(OCc4ccccc4)c(OC)cc3C2)c1` [compound 21, 6-Benzyloxy-7-methoxy-2-(2,5-dimethoxybenzyl)-1,2,3,4-tetrahydroisoquinoline] had a GI50 in the data set on DU145 cells (setting [1]) of 10 to 50 µM.
The molecule `COc1cc2c(cc1O)CCN(Cc1cccc(C)c1)C2` [compound 44, 6-Hydroxy-7-methoxy-2-(3-methylbenzyl)-1,2,3,4-tetrahydroisoquinoline] returned a 50% growth inhibitory concentration (GI50) in the data set with DU145 cells (setting [1]) greater than 100 µM.
As to `COc1cc2c(cc1O)CCN(Cc1cccc(NC(C)=O)c1)C2` [compound 50, 6-Hydroxy-7-methoxy-2-(3-acetamidobenzyl)-1,2,3,4-tetrahydroisoquinoline], the 50% growth inhibitory concentration (GI50) in the data set with DU145 cells (setting [1]) was greater than 100 µM.
For `COc1cccc(CN2CCc3cc(OS(N)(=O)=O)c(OC)cc3C2)c1` [compound 72, 7-Methoxy-2-(3-methoxybenzyl)-6-O-sulfamoyl-1,2,3,4-tetrahydroisoquinoline], in the data set with DU145 cells (setting [2]), the GI50 is less than 10 µM.
Same read-out and setting: under `COc1ccc(CN2CCc3cc(OS(N)(=O)=O)c(OC)cc3C2)cc1` [compound 73, 7-Methoxy-2-(4-methoxybenzyl)-6-O-sulfamoyl-1,2,3,4-tetrahydroisoquinoline] stands 50 to 100 µM; under `COc1cc2c(cc1OS(N)(=O)=O)CCN(Cc1ccccc1)C2` [compound 74, 2-Benzyl-7-methoxy-6-O-sulfamoyl-1,2,3,4-tetrahydroisoquinoline], 50 to 100 µM.
Take `COc1ccccc1CN1CCc2cc(OS(N)(=O)=O)c(OC)cc2C1` [compound 75, 7-Methoxy-2-(2-methoxybenzyl)-6-O-sulfamoyl-1,2,3,4-tetrahydroisoquinoline]: the 50% growth inhibitory concentration (GI50) in the data set on DU145 cells (setting [2]) was less than 10 µM.
Still for that read-out and setting: the value for `COc1cc(CN2CCc3cc(OS(N)(=O)=O)c(OC)cc3C2)cc(OC)c1` [compound 76, 2-(3,5-Dimethoxybenzyl)-7-methoxy-6-O-sulfamoyl-1,2,3,4-tetrahydroisoquinoline] was less than 10 µM.
`COc1cc2c(cc1O)CC(C)(C)N(Cc1cc(OC)c(OC)c(OC)c1)C2` [compound 229, 7-Methoxy-3,3-dimethyl-2-(3,4,5-trimethoxy-benzyl)-1,2,3,4-tetrahydro-isoquinolin-6-ol] showed a melting point of 143 to 147 °C.
Still for that read-out and setting: the value for `COc1cc(OC)cc(C(=O)N2Cc3cc(OC)c(O)cc3CC2(C)C)c1` [compound 235, (3,4-Dihydro-6-hydroxy-7-methoxy-3,3-dimethylisoquinolin-2(1H)-yl)(3,5-dimethoxyphenyl)methanone] was 163 to 166 °C; that for `COc1cc2c(cc1OCc1ccccc1)CC(C)(C)N(C(=O)c1cc(OC)c(OC)c(OC)c1)C2C` (stereo not shown) [compound 245, (6-(Benzyloxy)-3,4-dihydro-7-methoxy-1,3,3-trimethylisoquinolin-2(1H)-yl)-(3,4,5-trimethoxyphenyl)methanone] was 175 to 177 °C; that for `COc1cc2c(cc1O)CC(C)(C)N(C(=O)c1cc(OC)c(OC)c(OC)c1)C2C` (stereo not shown) [compound 246, (3,4-Dihydro-6-hydroxy-7-methoxy-1,3,3-trimethylisoquinolin-2(1H)-yl)(3,4,5-trimethoxyphenyl)methanone] was 198 to 200 °C.
On the same count and under the same terms, under `COc1cc2c(cc1OS(N)(=O)=O)CC(C)(C)N(C(=O)c1cc(OC)c(OC)c(OC)c1)C2C` (stereo not shown) [compound 247, Sulfamic acid 7-methoxy-1,3,3-trimethyl-2-(3,4,5-trimethoxy-benzoyl)-1,2,3,4-tetrahydro-isoquinolin-6-yl ester] stands 170 to 173 °C; under `COc1cccc(CN2CCc3cc(O)c(OC)cc3C2C)c1` (stereo not shown) [compound 253, 2-(3-Methoxybenzyl)-1,2,3,4-tetrahydro-7-methoxy-1-methylisoquinolin-6-ol], 97 to 99 °C; under `COc1cc2c(cc1OCc1ccccc1)CCC(=O)N2Cc1cc(OC)c(OC)c(OC)c1` [compound 289, 6-(Benzyloxy)-7-methoxy-1-(3,4,5-trimethoxybenzyl)-3,4-dihydro-1H-quinolin-2-one], 129 to 130 °C.
Same read-out and setting: under `COc1ccc(CN2C(=O)CCc3cc(O)c(OC)cc32)cc1` [compound 292, 6-Hydroxy-7-methoxy-1-(4-methoxybenzyl)-3,4-dihydro-1H-quinolin-2-one] stands 168 to 169 °C; under `COc1cc2c(cc1O)CCC(=O)N2Cc1cc(OC)c(OC)c(OC)c1` [compound 293, 6-Hydroxy-7-methoxy-1-(3,4,5-trimethoxybenzyl)-3,4-dihydro-1H-quinolin-2-one], 157 to 158 °C.
Molecule `COc1ccccc1CN1CCCc2cc(OCc3ccccc3)c(OC)cc2C1` [compound 302, 7-Benzyloxy-8-methoxy-2-(2-methoxybenzyl)-2,3,4,5-tetrahydro-1H-benzo[c]azepine] displayed a melting point of 105 to 106 °C.
Same read-out and setting: the value for `COc1cccc(CC2CCCc3cc(OCc4ccccc4)c(OC)cc3N2)c1` (stereo not shown) [compound 303, 7-Benzyloxy-8-methoxy-2-(3-methoxybenzyl)-2,3,4,5-tetrahydro-1H-benzoazepine] was 92 to 93 °C; that for `COc1ccc(CN2CCCc3cc(OCc4ccccc4)c(OC)cc3C2)cc1` [compound 304, 7-Benzyloxy-8-methoxy-2-(4-methoxybenzyl)-2,3,4,5-tetrahydro-1H-benzo[c]azepine] was 87 to 88 °C; that for `COc1cc2c(cc1OCc1ccccc1)CCCN(Cc1cc(OC)c(OC)c(OC)c1)C2` [compound 305, 7-Benzyloxy-8-methoxy-2-(3,4,5-trimethoxybenzyl)-2,3,4,5-tetrahydro-1H-benzo[c]azepine] was 44 to 46 °C.
The same measure, in the same setting: the value for `COc1cc2c(cc1O)CCCN(Cc1ccccc1OC)C2` [compound 306, 7-Hydroxy-8-methoxy-2-(2-methoxybenzyl)-2,3,4,5-tetrahydro-1H-benzo[c]azepine] was 136 to 137 °C.
Still for that read-out and setting: the value for `COc1cccc(CN2CCCc3cc(O)c(OC)cc3C2)c1` [compound 307, 7-Hydroxy-8-methoxy-2-(3-methoxybenzyl)-2,3,4,5-tetrahydro-1H-benzo[e]azepine] was 114 to 115 °C; that for `COc1ccc(CN2CCCc3cc(O)c(OC)cc3C2)cc1` [compound 308, 7-Hydroxy-8-methoxy-2-(4-methoxybenzyl)-2,3,4,5-tetrahydro-1H-benzo[c]azepine] was 105 to 107 °C; that for `COc1cc2c(cc1O)CCCN(Cc1cc(OC)c(OC)c(OC)c1)C2` [compound 309, 7-Hydroxy-8-methoxy-2-(3,4,5-trimethoxybenzyl)-2,3,4,5-tetrahydro-1H-benzo[c]azepine] was 46 to 48 °C.
As for `COc1cc2c(cc1OCc1ccccc1)CCCN(Cc1cc(OC)c(OC)c(OC)c1)C2=O` [compound 314, 7-Benzyloxy-8-methoxy-2-(3,4,5-trimethoxybenzyl)-2,3,4,5-tetrahydro-1H-benzo[c]azepin-1-one], the melting point was in the range of 134 to 135 °C.
`COc1cc2c(cc1OCc1ccccc1)CCCC(=O)N2Cc1cc(OC)c(OC)c(OC)c1` [compound 318, 7-benzyloxy-8-methoxy-1-(3,4,5-trimethoxybenzyl)-4,5-dihydro-1H-benzo[b]azepin-2(3H)-one] showed a melting point of 129 to 130 °C.
`COc1cc2c(cc1O)CCCC(=O)N2Cc1cc(OC)c(OC)c(OC)c1` [compound 319, 7-Hydroxy-8-methoxy-1-(3,4,5-trimethoxybenzyl)-4,5-dihydro-1H-benzo[b]azepin-2(3H)-one] had a melting point of 170 to 171 °C.

A word on the GI50: it is the concentration at which growth is held to half of that of the control. By melting point is commonly meant the temperature, or range, at which the solid turns liquid.
